Measured values taken from US6509035B1, “Oral preparation of coenzyme a useful for lowering blood lipid and a method producing for same” (Shanghai Materia Medica Bioengineering Institute, priority 1999, dated 2003).

Assays:
[1] = tested on: serum triglyceride; test: Effect of CoA on serum triglyceride in patients with hyperlipemia; type: in vivo, human; conditions: oral 35 units three times daily
Experimental: (§1) Object: Individuals with plasma lipid more than 90% of upper limit of normal person were chosen, i.e. serum cholesterol >230 mg %, or triglyceride >160 mg %, 39 patients in total, 14 male, aged from 28-65; 25 female, aged from 32 to 70.
(§2) Oral dosage of CoA: one tablet per time, 35 units per tablet, administered on empty stomach three times daily. Three months was used as a course of treatment. During the course of the administration, the patients had diet same as the normal and stopped the administration of any other lipid-lowering medicament.
(§3) Measurement of plasma lipid: venous blood samples were taked from 12-14 hrs-fasting patients before administration and one month and 3 months after administration. Concentration of serum cholesterol and triglyceride were measured after isolation of serum. In the meantime, each patients' medical history was inquired, blood pressure was measured and liver function was determined.
(1) Effect on triglyceride: Statistical analysis were carried out on the difference of the concentration of serum triglyceride of hyperlipemia patients between before and after the administration of CoA by individual comparison test.

[2] = tested on: serum cholesterol; test: Effect of CoA on serum cholesterol in patients with hyperlipemia; type: in vivo, human; conditions: oral 35 units three times daily
Experimental: as §1, §2, §3
(2) Effect on cholesterol: Statistical analysis was carried out on the difference of the concentration of serum cholesterol of patients with hyperlipemia between before and after the administration of CoA by individual comparison test.

[3] = tested on: peripheral platelet; test: Effect of CoA on peripheral platelet of experimental dogs; type: in vivo, dog
Experimental: Object: 10 experimental dogs were used and devided into 2 groups of 5 to which oral or injection preparations of CoA was adminisered, respectively. Their peripheral platelet samples were taken and tested at intervals to observe the differences between before and after administration.
Dosage of CoA: Oral administration group, 100 units per time, twice per day. Injection administration group, 35 units per time, twice per day.
Result: Statistical analysis were carried out on the changes of the number of platelets before and after the administration of CoA to dogs by individual comparison test. It is noted that exogenous CoA can improve the level of platelet in experimental dogs in a short time either administered by oral or injection route.

Structure (SMILES): CC(C)(COP(=O)(O)OP(=O)(O)OC[C@H]1O[C@@H](n2cnc3c(N)ncnc32)[C@H](O)[C@@H]1OP(=O)(O)O)[C@@H](O)C(=O)NCCC(=O)NCCS [CoA, coenzyme A]
- Average difference of triglyceride concentration between before and after administration (decrement) ([1]; one month): 64.2 mg %
- Average difference of triglyceride concentration between before and after administration (decrement) ([1]; three months): 75.5 mg %
- Average difference of serum cholesterol concentration between before and after administration (decrement) ([2]; one month): 25.7 mg %
- Average difference of serum cholesterol concentration between before and after administration (decrement) ([2]; three months): 22.1 mg %
- Average increment of platelets ([3]; injection administration group, day 8 (P<0.01)): 170,800 /mm^3
- Average increment of platelet ([3]; injection administration, 35 units twice per day, sampling time 1): 0.28 10,000/mm^3
- Average increment of platelet ([3]; injection administration, 35 units twice per day, sampling time 3): 7.44 10,000/mm^3
- Average increment of platelet ([3]; injection administration, 35 units twice per day, sampling time 6): 5.48 10,000/mm^3
- Average increment of platelet ([3]; injection administration, 35 units twice per day, sampling time 8): 17.08 10,000/mm^3
- Average increment of platelet ([3]; injection administration, 35 units twice per day, sampling time 10): 11.36 10,000/mm^3
- Average increment of platelet ([3]; injection administration, 35 units twice per day, sampling time 13): 3.68 10,000/mm^3
- Average increment of platelets ([3]; oral administration group, day 6 (P<0.05)): 133,000 /mm^3
- Average increment of platelet ([3]; oral administration, 100 units twice per day, sampling time 1): 8.64 10,000/mm^3
- Average increment of platelet ([3]; oral administration, 100 units twice per day, sampling time 3): 8.06 10,000/mm^3
- Average increment of platelet ([3]; oral administration, 100 units twice per day, sampling time 6): 13.3 10,000/mm^3
- Average increment of platelet ([3]; oral administration, 100 units twice per day, sampling time 8): 4.25 10,000/mm^3
- Average increment of platelet ([3]; oral administration, 100 units twice per day, sampling time 10): 1.96 10,000/mm^3
- Average increment of platelet ([3]; oral administration, 100 units twice per day, sampling time 13): −2.52 10,000/mm^3
